From the NIST ThermoML archive (doi:10.1016/j.fluid.2010.10.028)
± gives the expanded uncertainty stated by the source.

Assay: xn = mol fraction of the nth substance listed
Conditions: Liquid, Vibrating tube method

CC(C)=O [acetone] + CCCCCCC
mass density (417.19 K, 24970 kPa, x1 = 0.4): 667.12 ± 1.3 kg/m3 | mass density (417.19 K, 24970 kPa, x1 = 0.8992): 667.12 ± 1.3 kg/m3 | mass density (417.19 K, 29860 kPa, x1 = 0.801): 662.11 ± 1.3 kg/m3 | mass density (417.19 K, 29960 kPa, x1 = 0.4): 675.37 ± 1.3 kg/m3 | mass density (417.19 K, 29960 kPa, x1 = 0.8992): 675.37 ± 1.3 kg/m3 | mass density (417.19 K, 34850 kPa, x1 = 0.801): 669.57 ± 1.3 kg/m3 | mass density (417.19 K, 34950 kPa, x1 = 0.4): 682.9 ± 1.3 kg/m3 | mass density (417.19 K, 34950 kPa, x1 = 0.8992): 682.9 ± 1.3 kg/m3 | mass density (417.19 K, 39860 kPa, x1 = 0.801): 676.46 ± 1.4 kg/m3 | mass density (417.19 K, 39930 kPa, x1 = 0.4): 689.8 ± 1.4 kg/m3 | mass density (417.19 K, 39930 kPa, x1 = 0.8992): 689.8 ± 1.3 kg/m3 | mass density (417.19 K, 44860 kPa, x1 = 0.801): 682.8 ± 1.4 kg/m3 | mass density (417.19 K, 44890 kPa, x1 = 0.7024): 672.51 ± 1.4 kg/m3 | mass density (417.19 K, 49870 kPa, x1 = 0.801): 688.76 ± 1.4 kg/m3 | mass density (417.19 K, 49890 kPa, x1 = 0.4): 702.22 ± 1.4 kg/m3 | mass density (417.19 K, 49890 kPa, x1 = 0.7024): 678.35 ± 1.4 kg/m3 | mass density (417.19 K, 49890 kPa, x1 = 0.8992): 702.22 ± 1.4 kg/m3 | mass density (417.19 K, 54860 kPa, x1 = 0.801): 694.3 ± 1.4 kg/m3 | mass density (417.19 K, 54870 kPa, x1 = 0.4): 707.85 ± 1.4 kg/m3 | mass density (417.19 K, 54870 kPa, x1 = 0.8992): 707.85 ± 1.4 kg/m3 | mass density (417.19 K, 54880 kPa, x1 = 0.7024): 683.78 ± 1.4 kg/m3 | mass density (417.19 K, 59860 kPa, x1 = 0.7024): 688.95 ± 1.4 kg/m3 | mass density (417.19 K, 59870 kPa, x1 = 0.801): 699.57 ± 1.4 kg/m3 | mass density (417.19 K, 64830 kPa, x1 = 0.801): 704.51 ± 1.4 kg/m3 | mass density (417.19 K, 69830 kPa, x1 = 0.801): 709.22 ± 1.5 kg/m3 | mass density (417.19 K, 74920 kPa, x1 = 0.801): 713.82 ± 1.5 kg/m3 | mass density (417.19 K, 79790 kPa, x1 = 0.7024): 707.06 ± 1.5 kg/m3 | mass density (417.19 K, 79800 kPa, x1 = 0.4): 732.02 ± 1.5 kg/m3 | mass density (417.19 K, 79800 kPa, x1 = 0.8992): 732.02 ± 1.5 kg/m3 | mass density (417.19 K, 79910 kPa, x1 = 0.801): 718.11 ± 1.5 kg/m3 | mass density (417.19 K, 84890 kPa, x1 = 0.801): 722.24 ± 1.5 kg/m3 | mass density (417.19 K, 89750 kPa, x1 = 0.4): 740.27 ± 1.6 kg/m3 | mass density (417.19 K, 89750 kPa, x1 = 0.8992): 740.27 ± 1.5 kg/m3 | mass density (417.19 K, 94870 kPa, x1 = 0.801): 730.03 ± 1.6 kg/m3 | mass density (417.19 K, 104800 kPa, x1 = 0.801): 737.2 ± 1.6 kg/m3 | mass density (417.19 K, 114770 kPa, x1 = 0.801): 743.97 ± 1.7 kg/m3 | mass density (417.19 K, 119800 kPa, x1 = 0.7024): 735.65 ± 1.7 kg/m3 | mass density (417.19 K, 119830 kPa, x1 = 0.801): 747.24 ± 1.7 kg/m3 | mass density (417.19 K, 124820 kPa, x1 = 0.7024): 738.72 ± 1.8 kg/m3 | mass density (417.19 K, 124830 kPa, x1 = 0.801): 750.39 ± 1.7 kg/m3 | mass density (417.19 K, 129810 kPa, x1 = 0.7024): 741.7 ± 1.8 kg/m3 | mass density (417.19 K, 129840 kPa, x1 = 0.801): 753.43 ± 1.7 kg/m3 | mass density (417.2 K, 1810 kPa, x1 = 0.7024): 587.77 ± 1.2 kg/m3 | mass density (417.2 K, 4810 kPa, x1 = 0.7024): 598.33 ± 1.2 kg/m3 | mass density (417.2 K, 9830 kPa, x1 = 0.7024): 612.79 ± 1.2 kg/m3 | mass density (417.2 K, 14820 kPa, x1 = 0.7024): 624.66 ± 1.3 kg/m3 | mass density (417.2 K, 19830 kPa, x1 = 0.7024): 634.93 ± 1.3 kg/m3 | mass density (417.2 K, 24810 kPa, x1 = 0.7024): 643.93 ± 1.3 kg/m3 | mass density (417.2 K, 29810 kPa, x1 = 0.7024): 652.02 ± 1.3 kg/m3 | mass density (417.2 K, 34810 kPa, x1 = 0.7024): 659.38 ± 1.3 kg/m3 | mass density (417.2 K, 39820 kPa, x1 = 0.7024): 666.17 ± 1.4 kg/m3 | mass density (417.2 K, 44910 kPa, x1 = 0.4): 696.21 ± 1.4 kg/m3 | mass density (417.2 K, 44910 kPa, x1 = 0.8992): 696.21 ± 1.4 kg/m3 | mass density (417.2 K, 59870 kPa, x1 = 0.4): 713.19 ± 1.4 kg/m3 | mass density (417.2 K, 59870 kPa, x1 = 0.8992): 713.19 ± 1.4 kg/m3 | mass density (417.2 K, 64850 kPa, x1 = 0.4): 718.24 ± 1.4 kg/m3 | mass density (417.2 K, 64850 kPa, x1 = 0.7024): 693.8 ± 1.5 kg/m3 | mass density (417.2 K, 64850 kPa, x1 = 0.8992): 718.24 ± 1.4 kg/m3 | mass density (417.2 K, 69820 kPa, x1 = 0.4): 723.05 ± 1.5 kg/m3 | mass density (417.2 K, 69820 kPa, x1 = 0.8992): 723.05 ± 1.4 kg/m3 | mass density (417.2 K, 69830 kPa, x1 = 0.7024): 698.42 ± 1.5 kg/m3 | mass density (417.2 K, 74810 kPa, x1 = 0.4): 727.63 ± 1.5 kg/m3 | mass density (417.2 K, 74810 kPa, x1 = 0.8992): 727.63 ± 1.5 kg/m3 | mass density (417.2 K, 74820 kPa, x1 = 0.7024): 702.83 ± 1.5 kg/m3 | mass density (417.2 K, 84780 kPa, x1 = 0.4): 736.22 ± 1.5 kg/m3 | mass density (417.2 K, 84780 kPa, x1 = 0.7024): 711.1 ± 1.6 kg/m3 | mass density (417.2 K, 84780 kPa, x1 = 0.8992): 736.22 ± 1.5 kg/m3 | mass density (417.2 K, 89760 kPa, x1 = 0.7024): 714.98 ± 1.6 kg/m3 | mass density (417.2 K, 89890 kPa, x1 = 0.801): 726.21 ± 1.6 kg/m3 | mass density (417.2 K, 94720 kPa, x1 = 0.4): 744.15 ± 1.6 kg/m3 | mass density (417.2 K, 94720 kPa, x1 = 0.8992): 744.15 ± 1.6 kg/m3 | mass density (417.2 K, 94740 kPa, x1 = 0.7024): 718.71 ± 1.6 kg/m3 | mass density (417.2 K, 99690 kPa, x1 = 0.4): 747.91 ± 1.6 kg/m3 | mass density (417.2 K, 99690 kPa, x1 = 0.8992): 747.91 ± 1.6 kg/m3 | mass density (417.2 K, 99840 kPa, x1 = 0.7024): 722.39 ± 1.6 kg/m3 | mass density (417.2 K, 99840 kPa, x1 = 0.801): 733.67 ± 1.6 kg/m3 | mass density (417.2 K, 104650 kPa, x1 = 0.4): 751.51 ± 1.6 kg/m3 | mass density (417.2 K, 104650 kPa, x1 = 0.8992): 751.51 ± 1.6 kg/m3 | mass density (417.2 K, 104810 kPa, x1 = 0.7024): 725.87 ± 1.7 kg/m3 | mass density (417.2 K, 109620 kPa, x1 = 0.4): 755.03 ± 1.6 kg/m3 | mass density (417.2 K, 109620 kPa, x1 = 0.8992): 755.03 ± 1.6 kg/m3 | mass density (417.2 K, 109800 kPa, x1 = 0.801): 740.64 ± 1.6 kg/m3 | mass density (417.2 K, 109810 kPa, x1 = 0.7024): 729.22 ± 1.7 kg/m3 | mass density (417.2 K, 114590 kPa, x1 = 0.4): 758.45 ± 1.6 kg/m3 | mass density (417.2 K, 114590 kPa, x1 = 0.8992): 758.45 ± 1.6 kg/m3 | mass density (417.2 K, 114820 kPa, x1 = 0.7024): 732.49 ± 1.7 kg/m3 | mass density (417.2 K, 119550 kPa, x1 = 0.4): 761.72 ± 1.7 kg/m3 | mass density (417.2 K, 119550 kPa, x1 = 0.8992): 761.72 ± 1.6 kg/m3 | mass density (417.2 K, 124810 kPa, x1 = 0.4): 765.12 ± 1.7 kg/m3 | mass density (417.2 K, 124810 kPa, x1 = 0.8992): 765.12 ± 1.7 kg/m3 | mass density (417.2 K, 129820 kPa, x1 = 0.4): 768.24 ± 1.7 kg/m3 | mass density (417.2 K, 129820 kPa, x1 = 0.8992): 768.24 ± 1.7 kg/m3
